# Values joined by “and” are separate entries in the source; they are usually repeats but may differ in a detail not shown here. Identical values can stand only once.
# Assays:
# SPF rabbits = assay: Tolerability study of inhaled BromAc in rabbit model; details: Ac 20 mg inhaled; 48 h
# [1] = test system: chemokines, cytokines and growth factors in tracheal aspirate samples from COVID-19 patients; assay: Immunological inflammatory mediators, 27-plex bead assay; set-up: species or system human; details: BromAc 125 and 250 mcg + 2% NAC, or NAC alone at 2%; 60 minutes, 37° C.
# Procedure: In order to verify the effect of BromAc in the inflammatory mediators present in tracheal aspirate (TA) samples from COVID-19 patients. TA specimens were treated with 125 to 250 μg of Bromelain and 2% NAC (BromAc) using the MAD device as described previously. Treated and untreated TA specimens were incubated at 37° C. in 6 well plates for 1 hour. After that, TA specimen aliquots were initially cleared by centrifugation at 800×g for 10 min, at room temperature and TA supernatants were transferred to fresh 2 mL microtubes. Samples were diluted 1:10 and incubated with magnetic beads covered with monoclonal antibodies specific to several immunological mediators, such as: chemokines (CXCL8, CCL11, CCL3, CCL4, CCL2, and CXCL10), inflammatory cytokines (IL-1b, IL-6, TNF-α, IL-12, IFN-g, IL-15 and IL-17), regulatory cytokines (IL-1Ra, IL-9. IL-10) and growth factors (FGF-basic, PDGF, VEGF, G-CSF. GM-CSF, IL-2 and IL-7). Experiments were carried out according to the manufacturer's instructions using the Procarta Human Cytokine 27-plex Assay, (Invitrogen, CA, USA). The immunological mediators were measured in TA samples and the concentrations of each sample was determined according to standard curves run for each molecule tested using a fifth parameter logistic fit analysis. The results were expressed as pg/mL for all mediators tested. […]
# [2] = Dynamic viscosity (capillary tube) after aerosol treatment; set-up: species or system human; details: SS; for Dynamic viscosity (γ), After: before 1.748 ± 0.006
# Procedure: Six grams of soft PMP mucin was homogenised using a shredder with phosphate buffer saline (PBS) (3.0 ml) with sonification and vortexed until a homogenous mixture was formed, with incubation at 37° C. to remove air bubbles and after which viscosity was adjusted (further dilutions with PBS). The pH was adjusted to 7.0 using either 1.0 M NaOH or 0.1 N Hydrochloric acid. Dynamic viscosity (Y) of sputum was measured using the capillary tube method as outlined in […]. and G. Castellano, Determination of the kinematic viscosity by the liquid rise in a capillary tube. […] Ensino de Física, 2013. 35. A similar investigation as above was carried out to determine a comparative dynamic viscosity and pipette flow time for PMP mucin simulated sputa (SS). A similar treatment as in the experiment described above for NAC was carried out using Bromelain (125 and 250 μg/ml) in PBS (pH.7.0) along with control using PBS (pH.7.0). Both dynamic viscosity and pipette flow time was measured as outlined earlier for both artificial and PMP simulated sputa models. Using a combination of NAC (20 mg/ml) with either 125 or 250 μg/ml Bromelain in PBS (pH.7.0), a similar investigation was carried out as outlined earlier and measurements were made for both artificial and simulated sputa models. D=(TREATED)-(UNTREATED/(UNTREATED)×100.
# [3] = Bromelain and acetylcysteine in plasma (ELISA), rabbit tolerability study; details: 4, 6, 24 and 48 h post-inhalation of 0.1 or 0.25 mg bromelain alone or in combination with acetylcysteine
# [4] = Dynamic viscosity (capillary tube) after aerosol treatment; details: AS; for Dynamic viscosity (γ), After: before 1.382 ± 0.013
# Procedure: Artificial sputum was prepared following protocol as detailed by […] et al (Kirchner, S., et al., Use of artificial sputum medium to test antibiotic efficacy against Pseudomonas aeruginosa in conditions more relevant to the cystic fibrosis lung. Journal of visualized experiments: JOVE, 2012 (64)). Briefly 250 mg of porcine mucin, 200 mg of sperm DNA, 295 mg of diethylene triamine pentaacetic acid (DPTA), 25 mg sodium chloride, 110 mg potassium chloride, 140 mg Tris base were mixed in a volume of 45 ml of distilled water and pH adjusted to 7.0 using Trisbase. The volume of the solution was then adjusted to 50 ml. Further dilutions were then carried out to adjust viscosity as desired. Dynamic viscosity (Y) of sputum was measured using the capillary tube method as outlined in […]. and G. Castellano, Determination of the kinematic viscosity by the liquid rise in a capillary tube. […] Ensino de Física, 2013. 35. Artificial sputa (AS) were prepared as detailed above, and 1.5 ml of artificial sputum was carefully emptied into an endotracheal tube (in triplicates). A volume of 6.0 ml of NAC 10 mg/ml in PBS (pH.7.0) in triplicate was aerosolised using a nebulizer and passed over the sputum samples in the endotracheal tubes kept at 37° C. in a water bath. Similarly, the experiments were repeated using NAC 20 mg/ml in PBS (pH.7.0). The controls only received PBS (pH 7.0). The aerosol delivery time to empty 6.0 ml for each treatment was 25 min. The dynamic viscosity of the sputa was measured before and after using the capillary tube method, whilst the pipette flow time was also measured as described earlier using a 0.5 ml glass pipette. Samples were equilibrated to 25° C. before measurement A similar treatment as in the experiment described above for NAC was carried out using Bromelain (125 and 250 μg/ml) in PBS (pH.7.0) along with control using PBS (pH.7.0). Both dynamic viscosity and pipette flow time was measured as outlined earlier for both artificial and PMP simulated sputa models. Using a combination of NAC (20 mg/ml) with either 125 or 250 μg/ml Bromelain in PBS (pH.7.0), a similar investigation was carried out as outlined earlier and measurements were made for both artificial and simulated sputa models. D=(TREATED)-(UNTREATED/(UNTREATED)×100.
compound,measurement,setting,value
"CC(=O)N[C@@H](CS)C(=O)O [NAC, N-acetylcysteine]","Incident: Broncho-interstitial pneumonia, multifocal, mild",SPF rabbits,1 out of 4
same,"Incident: Broncho-interstitial pneumonia, multifocal, mild, granulomatous",SPF rabbits,3 out of 4
same,"IL-9 level, compared to untreated",[1],the same effect was observed
same,"D (%), decrease of dynamic viscosity (γ)",[2]; aerosol NAC 10 mg/ml,16% and 16 ↓ %
same,"Dynamic viscosity (γ), After",[2]; aerosol NAC 10 mg/ml,1.467 ± 0.011 cSt
same,"D (%), decrease of dynamic viscosity (γ)",[2]; aerosol NAC 20 mg/ml,17% and 17 ↓ %
same,"Dynamic viscosity (γ), After",[2]; aerosol NAC 20 mg/ml,1.453 ± 0.055 cSt
same,detection in plasma (ELISA),[3],not detected
same,"D (%), decrease of dynamic viscosity (γ)",[4]; aerosol NAC 10 mg/ml,6.0% and 6.0 ↓ %
same,"Dynamic viscosity (γ), After","[4]; aerosol NAC 10 mg/ml, 6.0 ml over 25 min, 37° C.",1.300 ± 0.002 cSt
same,"D (%), decrease of dynamic viscosity (γ)",[4]; aerosol NAC 20 mg/ml,9.8% and 10% and 9.8 ↓ %
same,"Dynamic viscosity (γ), After",[4]; aerosol NAC 20 mg/ml,1.247 ± 0.041 cSt

# From patent publication US20250009856A1, “METHODS FOR TREATING RESPIRATORY DISEASES” (MUCPharm Pty Ltd, priority 2021, published 2025)
